Source: US20090247455A1, “Isolation of Inhibitors of IRES-Mediated Translation” (priority 2005, published 2009)

Tested on: HEK293 cells comprising the pcDNA3-red-HCVIRES-gpt vector
Experiment: Growth of HEK293 cells with the IRES-gpt construct versus control cells in 6-thioxanthine (OD 590 nm)
Assay type: cell-based
Settings: 100 μM, up to 9 days, OD at days 2, 6 and 9, versus control cells
Method: FIG. 3 is a graphical representation showing the growth of HEK293 cells comprising a construct in which a gpt gene is placed under the control of a HCV IRES or control cells grown in the presence or absence of 6-thioxanthine (100 μM). The number of days of 6-thioxanthine treatment is indicated on the X-axis. The optical density at 590 nm of the tissue culture flask containing the cells is shown on the Y-axis. […] The OD590 of cells comprising the IRES-gpt construct grown in the absence of 6-thioxanthine are represented by solid squares and dashed line. The OD590 of cells comprising the IRES-gpt construct grown in the presence of 6-thioxanthine are represented by solid squares and solid line.
Cells were also screened to determine those capable of expressing gpt under the control of HCV IRES. Briefly, transfected cells or control cells were maintained either in the absence or presence of 6-thioxanthine (100 μM) for up to 9 days. To determine any change in cell number an optical density measurement was performed at 590 nm at days 2, 6 and 9 after the addition of 6-thioxanthine to the relevant cells.

O=c1[nH]c(=S)c2[nH]cnc2[nH]1 [6-thioxanthine]
susceptibility of cells to 6-thioxanthine selection (optical density at 590 nm): considerably more susceptible
